Laboratory results as given in patent US8541434B2, “Ethynyl-substituted pyridine and pyrimidine derivatives and their use in treating viral infections” (Merck Sharp & Dohme Corp., priority 2008, dated 2013).

Tested on: HCV replicon cells
Assay: Cell-based HCV replicon assay (replicon RNA level by real time PCR, Taqman)
Settings: Hepatitis C virus, 72 h, harvested on day 3, EC90 = concentration necessary to achieve ΔCT=3.2 over the baseline, read-out: EC90 Range
Procedure: Assays Cell-Based HCV Replicon Assay
To measure cell-based anti-HCV activity of the compounds of the present invention, replicon cells were seeded at 5000 cells/well in 96-well collagen I-coated Nunc plates in the presence of the compound of the invention. […] The final concentration of DMSO was 0.5%, fetal bovine serum was 10%, in the assay media. Cells were harvested on day 3 by the addition of 1× cell lysis buffer (Ambion cat #8721). The replicon RNA level was measured using real time PCR (Taqman assay). The amplicon was located in 5B. […] GAPDH RNA was used as endogenous control and was amplified in the same reaction as NS5B (multiplex PCR) using primers and VIC-labeled probe recommended by the manufacturer (PE Applied Biosystem). The real-time RT-PCR reactions were run on ABI PRISM 7900HT Sequence Detection System using the following program: 48° C. for 30 min, 95° C. for 10 min, 40 cycles of 95° C. for 15 sec, 60° C. for 1 min. The ACT values (CT5B-CTGAPDH) were plotted against the concentration of test compound and fitted to the sigmoid dose-response model using GraphPad PRISM software. EC50 was defined as the concentration of inhibitor necessary to achieve ΔCT=1 over the projected baseline; EC90 the concentration necessary to achieve ΔCT=3.2 over the baseline. Alternatively, to quantitate the absolute amount of replicon RNA, a standard curve was established by including serially diluted T7 transcripts of replicon RNA in the Taqman assay. All Taqman reagents were from PE Applied Biosystems. Such an assay procedure was described in detail in e.g. Malcolm et al., Antimicrobial Agents and Chemotherapy 50: 1013-1020 (2006).

Row | SMILES | EC90 [nM]
1 | COc1ccc(C#Cc2c(C)nc(NCCSC)nc2N[C@@H]2C[C@H](CO)[C@@H](O)[C@H]2O)cn1 [Compound 84] | ≤ 500
2 | COCCNc1nc(Cl)c(C#Cc2ccc(OC)nc2C)c(N[C@@H]2C[C@H](CO)[C@@H](O)[C@H]2O)n1 [Compound 67] | ≤ 500
3 | Cc1nc(N)nc(N[C@@H]2C[C@H](CO)[C@@H](O)[C@H]2O)c1C#Cc1nccs1 [Compound 80] | 500 to 5000
4 | Nc1nc(Cl)c(C#Cc2ccc(-c3ccno3)s2)c(N[C@@H]2C[C@H](CO)[C@@H](O)[C@H]2O)n1 [Compound 43] | 500 to 5000
5 | OC[C@H]1C[C@@H](Nc2nc(NCC(F)(F)F)nc(Cl)c2C#Cc2ccc(-c3ccccn3)s2)[C@H](O)[C@@H]1O [Compound 97] | ≤ 500
6 | Nc1nc(Cl)c(C#Cc2ccc(C(=O)C(F)(F)F)s2)c(N[C@@H]2C[C@H](CO)[C@@H](O)[C@H]2O)n1 [Compound 40] | 500 to 5000
7 | COc1ccc(C#Cc2c(Cl)nc(N)nc2N[C@@H]2C[C@H](CO)[C@@H](O)[C@H]2O)c(C)c1 [Compound 29] | 500 to 5000
8 | Cc1ccc(C#Cc2c(Cl)nc(N)nc2N[C@@H]2C[C@H](CO)[C@@H](O)[C@H]2O)cn1 [Compound 5] | 500 to 5000
9 | CCNc1nc(C)c(C#Cc2ccc(OC)nc2)c(N[C@@H]2C[C@H](CO)[C@@H](O)[C@H]2O)n1 [Compound 91] | ≤ 500
10 | Nc1nc(Cl)c(C#Cc2ncc[nH]2)c(N[C@@H]2C[C@H](CO)[C@@H](O)[C@H]2O)n1 [Compound 13] | 500 to 5000
11 | Cc1nc(NCc2ccccn2)nc(N[C@@H]2C[C@H](CO)[C@@H](O)[C@H]2O)c1C#Cc1ccsc1 [Compound 102] | ≤ 500
12 | Nc1nc(Cl)c(C#Cc2cncnc2)c(N[C@@H]2C[C@H](CO)[C@@H](O)[C@H]2O)n1 [Compound 45] | 500 to 5000
13 | CNc1nc(Cl)c(C#Cc2ccc(OC)nc2)c(N[C@@H]2C[C@H](CO)[C@@H](O)[C@H]2O)n1 [Compound 19] | ≤ 500
14 | Cc1nc(OCC(F)(F)F)ccc1C#Cc1c(Cl)nc(NCC(F)(F)F)nc1N[C@@H]1C[C@H](CO)[C@@H](O)[C@H]1O [Compound 70] | 500 to 5000
15 | Nc1nc(Cl)c(C#Cc2ccoc2)c(N[C@@H]2C[C@H](CO)[C@@H](O)[C@H]2O)n1 [Compound 11] | 500 to 5000
16 | Cc1nc(-c2nccs2)ccc1C#Cc1c(Cl)nc(N)nc1N[C@@H]1C[C@H](CO)[C@@H](O)[C@H]1O [Compound 63] | ≤ 500
17 | Cc1nc(-c2ccc(C#Cc3c(Cl)nc(N)nc3N[C@@H]3C[C@H](CO)[C@@H](O)[C@H]3O)s2)cs1 [Compound 39] | 500 to 5000
18 | COc1ccc(C#Cc2c(Cl)nc(N)nc2N[C@@H]2C[C@H](CO)[C@@H](O)[C@H]2O)c(OC)n1 [Compound 22] | ≤ 500

Row | SMILES | EC90 [nM]
19 | CC(C)Oc1ncccc1C#Cc1c(Cl)nc(N)nc1N[C@@H]1C[C@H](CO)[C@@H](O)[C@H]1O [Compound 14] | 500 to 5000
20 | COc1ccc(C#Cc2c(C)nc(NCC3CC3)nc2N[C@@H]2C[C@H](CO)[C@@H](O)[C@H]2O)cn1 [Compound 92] | ≤ 500
21 | CCOc1ccc(C#Cc2c(Cl)nc(N)nc2N[C@@H]2C[C@H](CO)[C@@H](O)[C@H]2O)cn1 [Compound 21] | ≤ 500
22 | Nc1nc(Cl)c(C#Cc2ccc(-c3ccccn3)s2)c(N[C@@H]2C[C@H](CO)[C@@H](O)[C@H]2O)n1 [Compound 34] | ≤ 500
23 | Cc1nc(-c2cccs2)ccc1C#Cc1c(Cl)nc(N)nc1N[C@@H]1C[C@H](CO)[C@@H](O)[C@H]1O [Compound 18] | ≤ 500
24 | CCOc1ccc(C#Cc2c(Cl)nc(NCCOC)nc2N[C@@H]2C[C@H](CO)[C@@H](O)[C@H]2O)cn1 [Compound 73] | ≤ 500
25 | CNC(=O)c1ncccc1C#Cc1c(Cl)nc(N)nc1N[C@@H]1C[C@H](CO)[C@@H](O)[C@H]1O [Compound 57] | 500 to 5000
26 | COc1ccc(C#Cc2c(C)nc(NCc3c(OC)cccc3OC)nc2N[C@@H]2C[C@H](CO)[C@@H](O)[C@H]2O)cn1 [Compound 93] | ≤ 500
27 | Nc1nc(Cl)c(C#Cc2ccc(F)nc2)c(N[C@@H]2C[C@H](CO)[C@@H](O)[C@H]2O)n1 [Compound 8] | 500 to 5000
28 | CCCc1ccc(C#Cc2c(Cl)nc(N)nc2N[C@@H]2C[C@H](CO)[C@@H](O)[C@H]2O)cn1 [Compound 79] | ≤ 500
29 | COC(=O)c1nc(N)sc1C#Cc1c(Cl)nc(N)nc1N[C@@H]1C[C@H](CO)[C@@H](O)[C@H]1O [Compound 32] | ≤ 500
30 | Nc1nc(Cl)c(C#Cc2ccc(C3CCCCN3)s2)c(N[C@@H]2C[C@H](CO)[C@@H](O)[C@H]2O)n1 (stereo partly drawn) [Compound 31] | ≤ 500
31 | CCCNc1nc(C)c(C#Cc2ccc(OCC)nc2)c(N[C@@H]2C[C@H](CO)[C@@H](O)[C@H]2O)n1 [Compound 87] | ≤ 500
32 | COCCNc1nc(Cl)c(C#Cc2ccc(OC)nc2)c(N[C@@H]2C[C@H](CO)[C@@H](O)[C@H]2O)n1 [Compound 75] | ≤ 500
33 | CCNC(=O)c1ncccc1C#Cc1c(Cl)nc(N)nc1N[C@@H]1C[C@H](CO)[C@@H](O)[C@H]1O [Compound 56] | 500 to 5000
34 | COCCNc1nc(C)c(C#Cc2ccc(OC)nc2C)c(N[C@@H]2C[C@H](CO)[C@@H](O)[C@H]2O)n1 [Compound 82] | ≤ 500
35 | CCOc1ccc(C#Cc2c(C)nc(NCCOC)nc2N[C@@H]2C[C@H](CO)[C@@H](O)[C@H]2O)cn1 [Compound 81] | ≤ 500
36 | CCOc1ccc(C#Cc2c(C)nc(NCC(C)(C)C)nc2N[C@@H]2C[C@H](CO)[C@@H](O)[C@H]2O)cn1 [Compound 85] | ≤ 500
